From ChEMBL document CHEMBL6083198, “Rational design of a high-affinity fluorescent probe for visualizing monitoring the amyloid β clearance effect of anti-Alzheimer's disease drug candidates” (Eur J Med Chem, 2024)
pKd: −log10 of the molar value. The source made the active and inactive calls. The calls are words filed in the database; no cut-off is given here.

Experiments:
[1] = test system: Caenorhabditis elegans; test: Anti-alzheimer activity against heat-induced Caenorhabditis elegans CL4176 AD paralysis model assessed as reduction in amyloid-beta deposition at 100 to 200 uM; type: functional, organism-based; conditions: dose 100-200 µM, time 5.0 day
[2] = test system: SH-SY5Y; test: Neuroprotective activity against amyloid beta-induced toxicity in human SH-SY5Y cells assessed as reduction in fluorescence intensity at 10 uM incubated for 24 hrs by immunofluorescence staining based analysis; type: functional, cell-based
[3] = target: T1, Amyloid-beta precursor protein (Homo sapiens, UniProt P05067); test: Inhibition of amyloid beta aggregation in amyloid beta-induced human SH-SY5Y cells assessed as reduction in fluorescence intensity at 2 to 20 uM incubated for 24 hrs by Western blot analysis; type: cell-based; conditions: dose 2-20 µM
[4] = test system: Caenorhabditis elegans; test: Anti-alzheimer activity against heat-induced Caenorhabditis elegans CL4176 AD paralysis model assessed as reduction in amyloid-beta deposition measured after 5 days by ThS staining based fluorescence assay; type: functional, organism-based; conditions: dose 100-200 µM, time 5.0 day
[5] = target: T1, Amyloid-beta precursor protein; test: Binding affinity to amyloid beta (unknown origin) assessed as dissociation constant
[6] = target: T1, Amyloid-beta precursor protein; test: Binding affinity to amyloid beta plaques 1 to 42 (unknown origin) assessed as dissociation constant
[7] = Fluorescence property of compound in aqueous solution assessed as fluorescence quantum yield; type: physicochemical; conditions: buffer
[8] = test system: Caenorhabditis elegans; test: Anti-alzheimer activity against heat-induced Caenorhabditis elegans CL2006 AD paralysis model assessed as reduction in amyloid-beta deposition at 200 uM measured after 5 days by ThS staining based fluorescence assay; type: functional, organism-based; conditions: time 5.0 day
[9] = test system: SH-SY5Y; test: Neuroprotective activity against amyloid beta-induced toxicity in human SH-SY5Y cells assessed as reduction in fluorescence intensity at 2 uM incubated for 24 hrs by immunofluorescence staining based analysis; type: functional, cell-based
[10] = target: T1, Amyloid-beta precursor protein; test: Binding affinity to amyloid beta oligomers (unknown origin) at 5 uM by fluorescence analysis
[11] = Photostability of compound under continuous light irradiation; type: physicochemical
[12] = species on record: Mus musculus; test: Binding affinity to amyloid beta plaques in 12 month old male APP/PS1 transgenic mouse model assessed as signal to noise ratio in brain slice at 100 uM incubated for 30 min by confocal microscopic analysis; type: tissue-based; conditions: time 12.0 months
[13] = species on record: Homo sapiens; test: Binding affinity to lysozyme (unknown origin) at 0.05 mg/ml by fluorescence analysis
[14] = Binding affinity to amyloid beta oligomer (unknown origin) assessed as dissociation constant; parameters: species or system Homo sapiens
[15] = Binding affinity to cellulase (unknown origin) at 0.05 mg/ml by fluorescence analysis
[16] = test system: SH-SY5Y; test: Cytotoxicity against human SH-SY5Y cells at 100 uM incubated for 24 hrs; type: toxicity, cell-based
[17] = Fluorescence property of compound in DCM assessed as fluorescence quantum yield; type: physicochemical
[18] = species on record: Homo sapiens; test: (§1) Binding affinity to amyloid beta fibril (unknown origin) assessed as dissociation constant
[19] = as §1; parameters: species or system Homo sapiens
[20] = species on record: Homo sapiens; test: Binding affinity to pepsin (unknown origin) at 0.05 mg/ml by fluorescence analysis
[21] = target: Trypsin (Homo sapiens) (UniProt P07477+P07478+P35030); test: Binding affinity to trypsin (unknown origin) at 0.05 mg/ml by fluorescence analysis; type: protein assay
[22] = species on record: Mus musculus; test: Binding affinity to amyloid beta plaques in 12 month old male APP/PS1mouse brain cerebral cortex by light-sheet microscopy; type: tissue-based; conditions: time 12.0 months
[23] = species on record: Homo sapiens; test: Binding affinity to amyloid beta fibril (unknown origin) at 0.025 mg/ml by fluorescence analysis
[24] = target: Albumin (Bos taurus, UniProt P02769); test: Binding affinity to bovine serum albumin (unknown origin) at 0.05 mg/ml by fluorescence analysis; conditions: cattle
[25] = species on record: Mus musculus; test: Binding affinity to amyloid beta plaques in 12 month old male APP/PS1 transgenic mouse model assessed as colocalization of amyloid beta plaques in brain at 100 uM incubated for 30 min by ab205240 staining based immunohistofluorescence assay; type: tissue-based; conditions: time 12.0 months
[26] = species on record: Homo sapiens; test: Binding affinity to amyloid beta monomer (unknown origin) assessed as dissociation constant
[27] = species on record: Homo sapiens; test: Binding affinity to phosphoesterase (unknown origin) at 0.05 mg/ml by fluorescence analysis
[28] = Stability of compound at pH 2 to 10 in presence of Amyloid beta; type: physicochemical; conditions: buffer
[29] = test system: U-87 MG; test: Cytotoxicity against human U-87 MG cells at 100 uM incubated for 24 hrs; type: toxicity, cell-based; conditions: u-87mg atcc

T1 sequence (P05067 whole entry): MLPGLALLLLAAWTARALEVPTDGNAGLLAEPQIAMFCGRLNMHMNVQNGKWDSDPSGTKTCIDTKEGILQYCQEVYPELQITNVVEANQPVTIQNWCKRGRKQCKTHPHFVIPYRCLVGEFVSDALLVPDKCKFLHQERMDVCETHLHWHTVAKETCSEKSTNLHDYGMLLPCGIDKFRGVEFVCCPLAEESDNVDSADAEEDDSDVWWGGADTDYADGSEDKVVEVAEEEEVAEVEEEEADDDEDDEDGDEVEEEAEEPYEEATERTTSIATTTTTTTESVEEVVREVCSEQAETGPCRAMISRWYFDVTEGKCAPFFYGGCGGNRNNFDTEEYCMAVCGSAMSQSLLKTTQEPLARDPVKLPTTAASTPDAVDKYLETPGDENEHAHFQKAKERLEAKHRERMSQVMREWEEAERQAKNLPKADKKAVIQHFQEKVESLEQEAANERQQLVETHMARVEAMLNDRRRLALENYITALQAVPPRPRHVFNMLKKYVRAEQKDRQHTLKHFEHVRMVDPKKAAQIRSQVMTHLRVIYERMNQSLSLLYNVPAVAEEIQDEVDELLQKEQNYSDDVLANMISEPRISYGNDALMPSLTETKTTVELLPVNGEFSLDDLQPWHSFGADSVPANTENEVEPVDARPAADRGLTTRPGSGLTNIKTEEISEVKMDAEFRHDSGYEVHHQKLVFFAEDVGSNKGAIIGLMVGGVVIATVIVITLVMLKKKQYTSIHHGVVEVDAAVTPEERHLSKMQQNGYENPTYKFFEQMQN
Albumin, sequence (P02769 whole entry): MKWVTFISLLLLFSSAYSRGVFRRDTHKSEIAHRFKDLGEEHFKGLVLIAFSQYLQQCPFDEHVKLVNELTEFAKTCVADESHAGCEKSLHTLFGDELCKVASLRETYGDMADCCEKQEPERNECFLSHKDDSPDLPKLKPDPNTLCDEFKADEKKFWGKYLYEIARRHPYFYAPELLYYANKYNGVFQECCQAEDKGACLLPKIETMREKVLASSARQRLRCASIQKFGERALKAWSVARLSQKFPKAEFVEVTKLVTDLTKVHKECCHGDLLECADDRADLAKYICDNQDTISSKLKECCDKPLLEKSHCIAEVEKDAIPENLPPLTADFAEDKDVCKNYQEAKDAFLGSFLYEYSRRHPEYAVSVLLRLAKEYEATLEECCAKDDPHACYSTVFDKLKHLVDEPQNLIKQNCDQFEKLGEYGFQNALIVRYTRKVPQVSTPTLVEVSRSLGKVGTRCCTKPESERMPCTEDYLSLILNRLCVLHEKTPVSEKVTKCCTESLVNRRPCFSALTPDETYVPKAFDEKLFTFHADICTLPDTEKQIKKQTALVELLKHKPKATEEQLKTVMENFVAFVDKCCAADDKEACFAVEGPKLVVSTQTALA

**Q.** For `CC(=O)Oc1ccccc1C(=O)Nc1ncc([N+](=O)[O-])s1`, which Activity [1] is on record?
**A.** The Activity was “Active”.

**Q.** And the Activity [2]?
**A.** Its Activity is “Active”.

**Q.** And the Activity [3]?
**A.** Its Activity is “Active”.

**Q.** What about the Activity [4] of the same compound?
**A.** The Activity was “Dose-dependent-effect”.

**Q.** With `CN(C)c1ccc2cc3c(cc2c1)OCC(C=C(C#N)C#N)=C3` as the compound, how does the pKd [5] read?
**A.** The pKd was 7.35.

**Q.** With `CCCN1/C(=C/C=C2\CCCC(C=C(C#N)C#N)=C2Cl)C(C)(C)c2ccccc21` as the compound, how does the pKd [6] read?
**A.** The pKd was 7.23.

**Q.** With `CN(C)c1ccc(/C=C/C=C(C#N)/C=C/C(C#N)=C/C=C/C=C/c2ccc(N(C)C)cc2)cc1` as the compound, how does the pKd [6] read?
**A.** Its pKd is 8.98.

**Q.** With `CN(C)c1ccc(-c2ccc(/C=C/C3CC(=C(C#N)C#N)c4ccccc4N3CCCS(=O)(=O)O)s2)cc1` (configuration not stated) as the compound, how does the pKd [5] read?
**A.** The pKd was 6.77.

**Q.** With `CN(C)c1ccc(-c2ccc3cc(C#N)c(=N)oc3c2)cc1` as the compound, how does the pKd [5] read?
**A.** Its pKd is 6.26.

**Q.** And the Activity [7]?
**A.** Its Activity is 0.027.

**Q.** With `COCCOCCn1c2ccccc2c2cc(CCc3cc[n+](C)c4ccccc34)ccc21` as the compound, how does the pKd [5] read?
**A.** Its pKd is 7.88.

**Q.** With `CN(C)c1ccc(/C=C/C=C/C=C(C#N)C#N)s1` as the compound, how does the pKd [5] read?
**A.** Its pKd is 6.93.

**Q.** With `O=c1c(O)c(-c2ccc(O)c(O)c2)oc2cc(O)cc(O)c12` as the compound, how does the Activity [4] read?
**A.** The Activity was “Dose-dependent-effect”.

**Q.** With `CCN(CC)c1ccc(/C=C/C2=[O+][B-](F)(F)OC(/C=C/c3ccc(N(CC)CC)nc3)=C2CCCOc2c(C)cccc2C)cc1` as the compound, how does the pKd [6] read?
**A.** Its pKd is 6.30.

**Q.** With `CN(C)c1ccc2cc(/C=C/c3ccc4ccccc4[n+]3C)c(=O)oc2c1` as the compound, how does the pKd [5] read?
**A.** Its pKd is 7.07.

**Q.** With `Cc1cc(/C=C/c2ccc(N(C)C)s2)n2c1C(CCCN1CCNc3ccccc31)=C1C=CC=[N+]1[B-]2(F)F` as the compound, how does the pKd [6] read?
**A.** The pKd was 7.57.

**Q.** Which Activity [8] does the source give for `CC(=O)Oc1cccc(C(=O)Nc2ncc(N3CCOCC3)s2)c1` here?
**A.** The Activity was “inactive”.

**Q.** And the Activity [1]?
**A.** Its Activity is “Active”.

**Q.** What about the Activity [9] of the same compound?
**A.** Its Activity is “Active”.

**Q.** What about the Activity [3] of the same compound?
**A.** Its Activity is “Active”.

**Q.** And the Activity [4]?
**A.** Its Activity is “Dose-dependent-effect”.

**Q.** With `CN(C)c1ccc(/C=C/c2ccc3cc(C#N)c(=O)oc3c2)cc1` as the compound, how does the Activity [10] read?
**A.** The Activity was “Active”.

**Q.** What about the Stability [11] of the same compound?
**A.** The Stability was “Stable”.

**Q.** What about the Activity [12] of the same compound?
**A.** Its Activity is “Active”.

**Q.** And the Activity [13]?
**A.** Its Activity is “inactive”.

**Q.** And the pKd [14]?
**A.** Its pKd is 7.09.

**Q.** And the Activity [15]?
**A.** Its Activity is “inactive”.

**Q.** What about the Activity [16] of the same compound?
**A.** The Activity was “Non-toxic”.

**Q.** And the Activity [17]?
**A.** The Activity was 0.3.

**Q.** And the Activity [18]?
**A.** Its Activity is “Active”.

**Q.** And the pKd [19]?
**A.** The pKd was 7.18.

**Q.** What about the Activity [20] of the same compound?
**A.** Its Activity is “inactive”.

**Q.** And the Activity [21]?
**A.** The Activity was “inactive”.

**Q.** What about the Activity [22] of the same compound?
**A.** The Activity was “Active”.

**Q.** What about the Activity [23] of the same compound?
**A.** Its Activity is “Active”.

**Q.** What about the Activity [24] of the same compound?
**A.** The Activity was “Not_active”.

**Q.** And the Activity [25]?
**A.** Its Activity is “Active”.

**Q.** What about the Activity [26] of the same compound?
**A.** Its Activity is “inactive”.

**Q.** And the Activity [27]?
**A.** The Activity was “inactive”.

**Q.** What about the Stability [28] of the same compound?
**A.** The Stability was “Stable”.

**Q.** What about the Activity [29] of the same compound?
**A.** Its Activity is “Non-toxic”.

**Q.** With `COCCOCCOC(=O)CCN1C(=O)/C(=C/c2ccc3c(c2)Sc2ccccc2N3C)SC1=S` as the compound, how does the pKd [5] read?
**A.** Its pKd is 7.55.
